Data as given in US20070032506A1, “CRYSTALLINE FORMS OF (2R-TRANS)-6-CHLORO-5[[4-[(4-FLUOROPHENYL)METHYL]-2,5-DIMETHYL-1-PIPERAZINYL]CARBONYL]-N,N, 1-TRIMETHYL-ALPHA-OXO-1H-INDOLE-3-ACETAMIDE MONOHYDROCHLORIDE” (priority 2005, published 2007).

Assay: Dynamic Vapor Sorption analysis
Type: physicochemical
Conditions: humidity range ~21-70% Relative Humidity, Material recrystallized from isopropanol
Description: The results of the XRPD analysis are shown both in Table I above and in FIG. 2. Dynamic Vapor Sorption analysis of this same materials was also done. […] (2 moles of water per molecule of the Compound would be 6.15% water).

- water content (water weight gained): 6-7%
SMILES: C[C@@H]1CN(Cc2ccc(F)cc2)[C@@H](C)CN1C(=O)c1cc2c(C(=O)C(=O)N(C)C)cn(C)c2cc1Cl.Cl [Compound, (2R-trans)-6-chloro-5-[[4-[(4-fluorophenyl)methyl]-2,5-dimethyl-1-piperazinyl]carbonyl]-N,N, 1-trimethyl-alpha-oxo-1H-indole-3-acetamide monohydrochloride]
